Measurements: US20230265524A1, “IMMUNOGENIC RETROELEMENTS AND THEIR USE IN CANCER THERAPY” (UNIVERSITY HEALTH NETWORK, priority 2020, published 2023)

Columns and labels:
[1] = test system: MDA5; experiment: MDA5-protection assay followed by RNA sequencing; assay type: cell-based, human
Experimental: A-C, Percentage of non-repeats and several families of Repetitive Elements in the total cytoplasmic fraction (‘Total CytoRNA’) and in the MDA5-protected fraction (‘MDA5-protected’) at the mock-treated baseline condition (A) and after 5-AZA-CdR treatment at 300 nM for 5 days, p<2.2e-16 (B). Treatment-induced immunogenic RNAs' refers to transcripts present in 5-AZA-CdR treated condition but not present in the baseline mock-treated condition (i.e. induced by the treatment), p<2.2e-16 (C). Each plot is the average percentage of two replicates. P-values represent the Fisher Exact test for enrichment of SINEs and depletion of non-repeats in immunogenic RNAs (5-AZA-CdR) and Treatment-induced immunogenic RNAs as compared to the MDA5-protected baseline immunogenic RNAs.
D-E, Counts of the expressed Alus in terms of the Log10 Fold change of their MDA5-protected expression over their Total CytoRNA expression. IR-Alus that are MDA5 dsRNA agonists have positive values on the x-axis. […] The color code represents Alus making Inverted Repeats pairs (gray) and Non-IR pairs (black) for Baseline immunogenic RNAs (n=187 Non-IR Alus and 1,602 IR-Alus) (D) and for the Treatment-induced immunogenic RNAs (n=992 Non-IR Alus and 5,199 IR-Alus) (E).
A, Venn-diagram showing the IR-Alu pairs at the Baseline (n=1,040), Immunogenic (5-AZA-CdR) (n=4,482) and Treatment-induced (n=3,687) conditions.
Viral mimicry response to epigenetic therapy is dependent on activation of the MDA5 pattern recognition receptor by endogenous dsRNAs^1,6,8. Therefore, to directly identify drug-induced immunogenic retroelements, we performed an MDA5-protection assay^19, followed by RNA sequencing. […] In contrast, only 1.71% of MDA5-protected RNAs in mock-treated samples were LTRs and 6.40% were LINEs (FIG. 2A). For DNMTi-treated samples, only 1.81% were LTRs and 7.56% were LINEs (FIG. 2B).
Then, to identify the immunogenic retroelements induced only by DNMTi treatment (“Treatment-Induced immunogenic RNAs”), we excluded those that were expressed in both the mock- and DNMTi-treated samples (FIG. 3A). Alu retroelements represented 88.72% of all MDA5-protected RNAs present only in DNMTi treated samples (“Treatment-Induced immunogenic RNAs”) (FIG. 2C). Treatment-induced immunogenic RNAs also included non-repeats (5.15%), LINEs (3.86%) and LTRs elements (1.37%) (FIG. 2C). Overall, our results reveal that while many dsRNA species are induced after DNMTi, Alu elements, but not LTRs/ERVs as previously assumed^1,2,4-6,20, are the major source of immunogenic dsRNA induced upon epigenetic therapy.
To uncover the molecular mechanisms of how repetitive elements generate immunogenic dsRNA, we examined all repeats in MDA5-protected transcripts and searched for repeat pairs within a 3 Kb window. […] Moreover, MDA5-protected RNA contained higher levels of IR-Alus compared to non-IR (direct repeat) Alus (FIG. 2D-E). The expression of baseline IR-Alus was maintained but not enhanced after 5-AZA-CdR treatment (FIG. 2D, FIG. 3D) while treatment-induced IR-Alu hybrids became highly expressed in the MDA5-protected RNA only after treatment with 5-AZA-CdR (FIG. 2E, FIG. 3E). […] Moreover, the majority of IR-Alu pairs were unidirectionally transcribed either in the sense (both repeats in the positive strand: “+/+”) or antisense (both repeats in the negative strand: “−/−”) direction in both baseline (FIG. 2H) and treatment-induced dsRNA (FIG. 2I).

[2] = test system: H3K4me3 and H3K27ac upstream of treatment-induced IR-Alus; experiment: genome-wide CUT&RUN of H3K4me3 and H3K27ac at treatment-induced IR-Alus; assay type: cell-based, human; settings: DNMTi treatment
Description: D, Heatmaps and average CUT & RUN profiles of H3K4me3 (left) and H3K27ac (right) signal at −50 kb/+50 kb (Upstream/downstream) of the Treatment-induced IR-Alu pairs regions. The orientation was based on the transcriptional orientation in the MDA5-protected RNA-seq data
Active promoters and enhancers are often marked by H3K4me3 and H3K27ac, respectively. […] Importantly, we assessed the DNA methylation status of these specific regulatory regions that became H3K4me3 marked upstream of the induced IR-Alus following epigenetic therapy and found the majority of these regions to be frequently methylated before treatment. We observed that 91% of these regions were either partially or fully methylated in the panel of 51 CRC cell lines (FIG. 6C) and 94% in the panel of 988 pan-cancer cell lines (FIG. 6D). Moreover, we observed that the DNA methylation status of these regulatory regions upstream of induced IR-Alus were inversely correlated (r=−0.23, p=7.58-13) with the expression of a panel of Interferon-Stimulated Genes (n=22 ISGs) from our viral mimicry signature^1 across the 988 pan-cancer cell lines (FIG. 6E).

[3] = test system: patient-derived xenograft CRC cells; experiment: subcutaneous patient-derived xenograft CRC tumour growth in NSG mice; assay type: in vivo; settings: 0.5 mg kg-1 intraperitoneal
Experimental: B, Schematic representation of in vivo experimental scheme of non-infected, ADAR1^WT, ADAR1^KDA and ADAR1^KDB patient-derived xenograft CRC cells injected subcutaneously into flanks of NSG mice (n=10 mice per group; 2 tumours per mouse). Arrows represent days of treatment (0.5 mg kg-1 5-AZA-CdR by intraperitoneal injection or vehicle).
C, Tumour volume measured at the indicated time points. Arrows represent days of treatment. ADAR1^KDA 5-AZA-CdR (n=20 tumours) and ADAR1^KDB 5-AZA-CdR (n=18 tumours at day 12 and n=14 tumours at day15) compared with non-infected (NI) 5-AZA-CdR (n=19 tumours) cohort. Data are mean±s.e.m. ****P<0.0001, Tukey-corrected two-way ANOVA
D, Colorectal cancer tumours dissected from Vehicle and 5-AZA-CdR cohorts at day 14 post-treatment are depicted for each condition (n=5) (NI=non-infected)
E, Tumour weight for each group at the time of dissection (day 14 after treatment). Data are mean±s.d. ****P<0.0001, Tukey-corrected ordinary-one-way ANOVA.
Finally, we sought to investigate whether ADAR1 inhibition would synergize with epigenetic therapy to increase the anti-tumour response. […] To examine the potential synergy in vivo, we injected ADAR1^KDA/B or wildtype patient-derived xenograft CRC cells subcutaneously into immune-deficient NOD.Cg-Prkdc (NSG) mice, and treated the mice with 5-AZA-CdR or vehicle (PBS) (FIG. 12B and FIG. 13A). […]

[4] = MDA5-protected RNAs present only in DNMTi treated samples
[5] = MDA5-protected, induced by DNMTi

## Nc1ncn([C@H]2C[C@H](O)[C@@H](CO)O2)c(=O)n1 [5-AZA-CdR]
[1]; Baseline n=1,040
  number of IR-Alu pairs, Immunogenic (5-AZA-CdR) condition: 4,482
[1]; DNMTi-treated samples, mock-treated 1.71%
  LTRs in MDA5-protected RNAs: 1.81%
[1]; DNMTi-treated samples, mock-treated 6.40%
  LINEs in MDA5-protected RNAs: 7.56%
[1]; Immunogenic RNAs (5-AZA-CdR), 300 nM for 5 days, mock-treated 53.03%
  Alus in the MDA5-protected RNA: 72.33%
[1]; [4]
  Alu retroelements among Treatment-Induced immunogenic RNAs: 88.72%
  LINEs among Treatment-induced immunogenic RNAs: 3.86%
  LTRs elements among Treatment-induced immunogenic RNAs: 1.37%
  non-repeats among Treatment-induced immunogenic RNAs: 5.15%
[1]; [5]
  treatment-induced IR-Alu pairs within intergenic regions: 16%
  treatment-induced IR-Alu pairs within introns: 70%
[1]; present after 5-AZA-CdR, not at baseline
  number of IR-Alu pairs, Treatment-induced condition: 3,687
[2]
  H3K4me3 and H3K27ac levels directly upstream of treatment-induced immunogenic IR-Alus: elevated levels of H3K4me3, but not H3K27ac
[3]; ADAR1^KDA/B cells
  anti-tumour activity: remarkable anti-tumour activity
[3]; wildtype cells
  anti-tumour activity: very limited anti-tumour activity
